Laboratory results from patent publication US20110112308A1 (NOVARTIS AG, priority 2006, published 2011).
Values after ≈ are worked out from the molar mass of the structure shown.

Tests used:
Assay type in all cases: physicochemical
[1] = Stability of mixtures with excipients; conditions: for stability with all excipient mixtures tested, in words: after 2 weeks at 50° C./75% r.h.
Experimental: (§1) All samples were prepared/diluted to a concentration of 0.2 mg/mL in methanol prior to analysis by HPLC. A freshly prepared sample of each salt was used as the reference standard for external standard calibration analysis.

[2] = Solution stability (HPLC); conditions: for stability characteristics, in words: both in solution and in the solid state; for Unstressed (% Area): unstressed baseline of the stability study
Experimental: as §1

[3] = pH of saturated solution or 1% suspension in water; conditions: room temperature
Experimental: pH Value: The pH at room temperature of a saturated solution or 1% suspension of the drug substance in water was recorded.

[4] = pH of saturated solution or 1% suspension in water; conditions: In pH = 6.8 buffer
[5] = Intrinsic dissolution rate, rotation disk method; conditions: for Intrinsic Dissolution Rate: 37° C., 200 r.p.m.
Experimental: Intrinsic Dissolution: […] […] Pellets of the other salts remained intact for at least several minutes enabling the determination of the intrinsic dissolution rate. Dissolution rate studies were performed using the rotation disk method ([…] Instrument). A single rotation speed of 200 r.p.m. was used to dissolve drug substance into a 500 mL vessel at 37° C. The solution was continuously pumped through a UV cell measurement and returned to the dissolution vessel.

[6] = Solid-state stability; conditions: for Bulk stability (XRPD): 1 week
Experimental: as §1

[7] = Solid samples held at 93% r.h. (XRPD, TGA); conditions: 93% r.h., 10 days
Experimental: (§2) An approximate solubility of the below-listed salts was determined in water and at pH 1 by suspending 5-15 mg of the salt in 1 mL of solvent. The samples were allowed to equilibrate at ambient temperature for at least 20 hours. The supernatant was filtered and used for the solubility determination, which was done gravimetrically, for the aqueous solubility, and by UV-VIS spectroscopy for pH 1. The solid residue was analyzed by XRPD. […] They were subsequently analyzed by XRPD and TGA, if the latter deemed necessary. Only irreversible or slowly reversible events can be detected.

[8] = Approximate solubility in water and at pH 1 (supplemental testing); conditions: for Form by XRPD of solid residue, Water: after equilibration in water > 20 hours
Experimental: as §2

[9] = Solubility, 24-hour equilibration at room temperature; conditions: organic solvent or mixture, thermodynamic from solid
Experimental: Aqueous Solubility: A carefully weighted amount (20-50 mg) of sample is dissolved in 1 ml of solvent with 24-hour equilibration at room temperature. The solubility was determined either gravimetrically or by UV-VIS spectrometry. The pH of the clear solution was also measured. However, the difficulty of determining salt solubilities in water should be stressed, since upon dissolution dissociation to the free form is possible, which affects both the solubility and the pH. It's not unlikely that attempts to make solutions of a salt at a concentration well below the reported solubility of the salt to be unsuccessful (for a full discussion see: M. Pudipeddi, A. T. M. Serajuddin, D. J. W. Grant, and P. H. Stahl in “Handbook of Pharmaceutical Salts Properties Selection and Use” page 27 and references therein).

[10] = Mixture 1: 50% PVP + 50% Crospovidone, 50° C./75% r.h., 2 weeks
[11] = Mixture 2: 50% Starch 1500 + 5% MCC 102, 50° C./75% r.h., 2 weeks
[12] = Mixture 3: 5% PVP + 5% Crospovidone + 10% Starch 1500 + 80% MCC 102, 50° C./75% r.h., 2 weeks
[13] = Mixture 4: 99% Lactose + 1% BHT/BHA, 50° C./75% r.h., 2 weeks
[14] = Mixture 5: 99% Mannitol + 1% BHT/BHA, 50° C./75% r.h., 2 weeks
[15] = Mixture 6: 50% Mannitol + 47% HPCLH21 + 1% BHT/BHA + 2% Magnesium Stearate, 50° C./75% r.h., 2 weeks
[16] = Mixture 7: 50% Cetyl Alcohol + 49% HPCLH21 + 1% Magnesium Stearate, 50° C./75% r.h., 2 weeks
[17] = Mixture 8: 100% PEG 3350, 50° C./75% r.h., 2 weeks
[18] = 2 mg/mL in 100 mM lactate buffer, pH 3.5
[19] = 2 mg/mL in methanol, 1 week at 50° C.
[20] = 2 mg/mL in water, 1 week at 50° C.
[21] = 2 mg/mL, 100 mM lactate buffer pH 3.5, 1 week at 50° C.
[22] = 2 mg/mL, 100 mM lactate buffer pH 3.5, 1 week at 50° C., external standard
[23] = 2% in 0.5% HPMC 4000, 1 day at RT
[24] = 2% in 0.5% Klucel HF, 1 day at RT
[25] = 2% in 0.8% Tween 80, 1 day at RT
[26] = 5% solution, 1 day at RT (diluted 1:100 in pH 6.8 buffer)
[27] = Water, free base pellet disintegrated, not true intrinsic rate
[28] = Bulk stability, 2 weeks, 50° C.
[29] = Bulk stability, 2 weeks, 50° C./20% water
[30] = Bulk stability, 2 weeks, 50° C./75% r.h.
[31] = Light study, 1200 kLux (300-800 nm)

2:1 L-tartarate salt of N-hydroxy-3-[4-[[[2-(2-methyl-1H-indol-3-yl)ethyl]amino]methyl]phenyl]-2E-2-propenamide
% DP (total degradation products) [1, 10]: 1.2 % area | % DS (drug substance) [1, 10]: 98.8 % area | % DP (total degradation products) [1, 11]: 1.3 % area | % DS (drug substance) [1, 11]: 98.7 % area | % DP (total degradation products) [1, 12]: 1.3 % area | % DS (drug substance) [1, 12]: 98.7 % area | % DP (total degradation products) [1, 13]: 1.3 % area | % DS (drug substance) [1, 13]: 98.7 % area | % DP (total degradation products) [1, 14]: 1.3 % area | % DS (drug substance) [1, 14]: 98.7 % area | % DP (total degradation products) [1, 15]: 1.3 % area | % DS (drug substance) [1, 15]: 98.7 % area | % DP (total degradation products) [1, 16]: 1.3 % area | % DS (drug substance) [1, 16]: 98.7 % area | % DP (total degradation products) [1, 17]: 1.3 % area | % DS (drug substance) [1, 17]: 98.7 % area | % DP (total degradation products) ([1]; Standard, freshly prepared): 0.6 % area | % DS (drug substance) ([1]; Standard, freshly prepared): 99.4 % area | stability with all excipient mixtures tested, in words [1]: very good stability | pH of initial mixture [2, 18]: 3.58 | % DP (total degradation products) [2, 19]: 0.86 % area | CL (appearance) [2, 19]: A↓ | assay [2, 19]: [100.5] | pH of initial mixture ([2]; 2 mg/mL in water): 6.82 | % DP (total degradation products) [2, 20]: 1.21 % area | CL (appearance) [2, 20]: A↓ | assay [2, 20]: [98.91] | % DP (total degradation products) [2, 21]: 1.53 % area | CL (appearance) [2, 21]: A↓* | assay [2, 22]: [96.89] | % DP (total degradation products) ([2]; 2% in 0.5% CMC, 1 day at RT): 0.62 % area | CL (appearance) ([2]; 2% in 0.5% CMC, 1 day at RT): A↓↓ | assay ([2]; 2% in 0.5% CMC, 1 day at RT): [79.98] | % DP (total degradation products) [2, 23]: 0.54 % area | assay [2, 23]: [97.54] | % DP (total degradation products) [2, 24]: 0.58 % area | assay [2, 24]: [96.39] | % DP (total degradation products) [2, 25]: 0.54 % area | assay [2, 25]: [96.60] | % DP (total degradation products) [2, 26]: 0.71 % area | CL (appearance) [2, 26]: A↓ | assay [2, 26]: [98.39] | stability characteristics, in words [2]: very good stability | Unstressed (% Area) [2]: 99.62% Area | pH of saturated solution [3]: 6.07 | pH of saturated solution [4]: 5.57 | intrinsic dissolution (rate), in words [5]: good | Intrinsic Dissolution Rate ([5]; HCl 0.1N): 1.16 mg min^−1 cm^−2 | Intrinsic Dissolution Rate [5, 27]: 0.38 mg min^−1 cm^−2 | Bulk stability (XRPD) ([6]; 80° C.): no change | Bulk stability (XRPD) ([6]; 80° C./75% r.h.): no change | % DP (total degradation products) [6, 28]: 0.84 % area | assay [6, 28]: [99.48] | % DP (total degradation products) [6, 29]: 1.61 % area | assay [6, 29]: [97.07] | % DP (total degradation products) [6, 30]: 1.36 % area | assay [6, 30]: [97.66] | % DP (total degradation products) [6, 31]: 0.82 % area | assay [6, 31]: [100.4]

2:1 malate (hemi-malate) salt of N-hydroxy-3-[4-[[[2-(2-methyl-1H-indol-3-yl) ethyl]amino]methyl]phenyl]-2E-2-propenamide
Solid State (EQ 93% r.h.) Form by XRPD [7]: No change | approximate aqueous solubility [8]: ~1400 µg/mL | S (approximate solubility), pH 1 ([8]; EQ t > 20 hours, ambient temperature, UV-VIS): 0.42 mg/mL | S (approximate solubility), Water ([8]; EQ t > 20 hours, ambient temperature, gravimetric): 1380 µg/mL | Form by XRPD of solid residue, Water [8]: No change | Form by XRPD of solid residue, Water ([8]; listed as malate): No structural change

Cc1[nH]c2ccccc2c1CCNCc1ccc(/C=C/C(=O)NO)cc1 [Free base, N-hydroxy-3-[4-[[[2-(2-methyl-1H-indol-3-yl)ethyl]amino]methyl]phenyl]-2E-2-propenamide]
% DS (drug substance) [1, 10]: 98.8 % area | % DS (drug substance) [1, 11]: 99.4 % area | % DS (drug substance) [1, 12]: 99.3 % area | % DS (drug substance) [1, 13]: 99.4 % area | % DS (drug substance) [1, 14]: 99.2 % area | % DS (drug substance) [1, 15]: 99.4 % area | % DS (drug substance) [1, 16]: 99.5 % area | % DS (drug substance) [1, 17]: 98.6 % area | % DS (drug substance) ([1]; Standard, freshly prepared): 99.5 % area | stability with all excipient mixtures tested, in words [1]: very good stability | pH of initial mixture [2, 18]: 3.60 | assay [2, 19]: [100.2] | pH of initial mixture ([2]; 2 mg/mL in water): 9.59 | CL (appearance) [2, 20]: A↓ | assay [2, 20]: [98.73] | assay [2, 22]: [97.21] | assay ([2]; 2% in 0.5% CMC, 1 day at RT): [98.07] | assay [2, 23]: [100.4] | assay [2, 24]: [99.28] | assay [2, 25]: [98.91] | CL (appearance) [2, 26]: A↓ | assay [2, 26]: [100.4] | stability characteristics, in words [2]: very good stability | Unstressed (% Area) [2]: 99.41% Area | pH of saturated solution [3]: 8.7 | pH of saturated solution [4]: 6.91 | Intrinsic Dissolution Rate [5, 27]: 0.15 mg min^−1 cm^−2 | Bulk stability (XRPD) ([6]; 80° C.): Changed to mod. C | Bulk stability (XRPD) ([6]; 80° C./75% r.h.): no change | assay [6, 28]: [97.76] | assay [6, 29]: [99.48] | assay [6, 30]: [98.61] | CL (appearance) [6, 31]: B (B = slight discoloration) | assay [6, 31]: [99.39] | solubility at 24 h ([9]; ethyl acetate, 25 °C): 5600 µg/mL (≈ 16 mM) | solubility at 24 h ([9]; Acetone, approx. at 25° C.): 6500 µg/mL (≈ 18.6 mM) | solubility at 24 h ([9]; Ethanol, approx. at 25° C.): 1500 µg/mL (≈ 4.29 mM) | solubility at 24 h ([9]; Methanol, approx. at 25° C.): 2300 µg/mL (≈ 6.58 mM)
